Measured values as given in US8530669B2, “Ester compound and use thereof” (Sumitomo Chemical Company, Limited, priority 2010, dated 2013).

Assays:
[1] = test system: American cockroaches (Periplaneta Americana); experiment: Test Example 1: oil solution spray knock-down test on American cockroaches; type: in vivo; conditions: adult American cockroaches, 1.5 ml of 0.1% (w/v) oil solution sprayed, repeated twice
Protocol: (§1) Zero point one (0.1) part of the compound of the present inventions (1), (2) and (4) was dissolved in 10 parts of isopropyl alcohol and the solution was mixed with 89.9 parts of deodorized kerosene to prepare a 0.1% (w/v) oil solution.
(§2) Six adult American cockroaches (Periplaneta Americana, 3 males and 3 females) were released in a test container (diameter 12.5 cm, 10 cm high, the bottom face is made of 16 mesh metallic wire), the inner face on which butter was applied, and the container was set at the bottom of a test chamber (bottom face: 46 cm×46 cm, height: 70 cm). Each 1.5 ml of the oil solution of the compound of the present invention (1), (2) and (4) was sprayed using a spray gun at a pressure of 0.4 kg/cm^2 from 60 cm higher than the upper face of the container. Thirty seconds after the spraying, the container was pulled out from the chamber. After a prescribed time, the number of knocked-down cockroaches was counted and a knock-down ratio was determined (repeated twice). The knocked-down ratio was calculated by the following equation. Knocked-down ratio(%)=(Number of knocked-down cockroaches/Number of test cockroaches)×100
For comparison, the test was conducted in the same manner as the above, except for using 2,5-dioxo-3-(2-propynyl)imidazolidinylmethyl=(1R)-cis-3-((Z)-2-cyano-2-methoxyethenyl)-2,2-dimethylcyclopropane carboxylate (compound described in JP-A-60-16962, hereinafter referred to as the comparative compound (1)) represented by the following formula: […]

[2] = test system: common mosquitoes (Culex pipens pallens); experiment: Test Example 2: oil solution spray knock-down test on common mosquitoes in glass chamber; type: in vivo; conditions: adult female Culex pipens pallens, 0.025% (w/v) oil solution sprayed into 70 cm cubic glass chamber, 1 minute after spraying
Protocol: Zero point zero two five (0.025) part of the compound of the present invention (1) and (4) was dissolved in 10 parts of isopropyl alcohol, and the solution was mixed with 89.975 parts of deodorized kerosene to prepare a 0.025% (w/v) oil solution.
(§3) Ten adult female common mosquitoes (Culex pipens pallens) were released in a cubic glass chamber having each side of 70 cm. The oil solution of the compound of the present invention (1) and (4) was sprayed into the chamber through a small window on the side of the chamber using a spraying gun at a pressure of 0.9 kg/cm^2. One minutes after spraying, the number of knocked-down mosquitoes was counted and a knock-down ratio was determined. A knocked-down ratio was calculated by the following equation. Knocked-down ratio(%)=(Number of knocked-down mosquitoes/Number of test mosquitoes)×100

[3] = test system: houseflies (Musca domestica); experiment: Test Example 3: oil solution spray knock-down test on houseflies in glass chamber; type: in vivo; conditions: adult Musca domestica, 0.7 ml of 0.025% (w/v) oil solution sprayed into 70 cm cubic glass chamber
Protocol: Zero point zero two five (0.025) part of the compound of the present invention (1) and (4) was dissolved in 10 parts of isopropyl alcohol, and the solution was mixed with […] parts of deodorized kerosene to prepare a 0.025% (w/v) oil solution.
as §3, with “houseflies (Musca domestica)” for “female common mosquitoes (Culex pipens pallens)”, “cm, and 0.7 ml of the” for “cm. The”, “Five” for “One”, “flies” for “mosquitoes”, “flies/Number” for “mosquitoes/Number”, “flies)×100” for “mosquitoes)×100”

[4] = test system: American cockroaches (Periplaneta Americana); experiment: Test Example 7: oil solution spray knock-down test on American cockroaches; type: in vivo; conditions: adult American cockroaches, 1.5 ml of 0.1% (w/v) oil solution sprayed, repeated twice
Protocol: as §1
as §2, with “Three minutes after spraying,” for “After a prescribed time,”

[5] = test system: German cockroaches (Blattella germanica); experiment: Test Example 8: oil solution spray knock-down test on German cockroaches; type: in vivo; conditions: adult German cockroaches, 1.5 ml of 0.00625% (w/v) oil solution sprayed, repeated once
Protocol: Zero point zero zero six two five (0.00625) part of the compound of the present inventions (1), (2), (3), (4) and (5) was dissolved in 10 parts of isopropyl alcohol and the solution was mixed with 89.99375 parts of deodorized kerosene to prepare a 0.00625% (w/v) oil solution.
Ten adult German cockroaches (Blattella germanica, 5 males and 5 females) were released in a test container (diameter 8.75 cm, 7.5 cm high, the bottom face is made of 16 mesh metallic wire), the inner face on which butter was applied, and the container was set at the bottom of a test chamber (bottom face: 46 cm×46 cm, height: 70 cm).
Each 1.5 ml of the oil solution of the compound of the present invention (1), (2), (3), (4) and (5) was sprayed using a spray gun at a pressure of 0.4 kg/cm^2 from 60 cm higher than the upper face of the container. Thirty seconds after the spraying, the container was pulled out from the chamber. Two minutes after spraying, the number of knocked-down cockroaches was counted and a knock-down ratio was determined (repeated once). A knocked-down ratio was calculated by the following equation. Knocked-down ratio(%)=(Number of knocked-down cockroaches/Number of test cockroaches)×100 The results (2 minutes after spraying) are shown in Table 5.

SMILES	Knock-down ratio (%) 2 minutes after spraying [1] [%]	Knock-down ratio (%) 1 minutes after spraying [2] [%]	Knock-down ratio (%) 5 minutes after spraying [3] [%]	Knock-down ratio (%) 3 minutes after spraying [4] [%]	Knock-down ratio (%) 2 minutes after spraying [5] [%]	melting point [°C]
C#CCn1c(C)nn(COC(=O)[C@@H]2[C@@H](/C=C(\C#N)SCC)C2(C)C)c1=O [compound of the present invention (4), 3-methyl-5-oxo-4-(2-propynyl)-4,5-dihydro-[1,2,4]triazolylmethyl=(1R)-trans-3-[(1E)-2-cyano-2-(ethylthio)ethenyl]-2,2-dimethylcyclopropane carboxylate]	100	100	80	100	100	
C#CCn1c(C)nn(COC(=O)[C@@H]2[C@@H](C=C(C#N)SC)C2(C)C)c1=O [compound of the present invention (1), 3-methyl-5-oxo-4-(2-propynyl)-4,5-dihydro-[1,2,4]triazolylmethyl=(1R)-trans-3-[(1EZ)-2-cyano-2-(methylthio)ethenyl]-2,2-dimethylcyclopropane carboxylate]	100	95	80	100	100	
C#CCn1c(C)nn(COC(=O)[C@@H]2[C@@H](/C=C(\C#N)SC)C2(C)C)c1=O [compound of the present invention (2), 3-methyl-5-oxo-4-(2-propynyl)-4,5-dihydro-[1,2,4]triazolylmethyl=(1R)-trans-3-[(1E)-2-cyano-2-(methylthio)ethenyl]-2,2-dimethylcyclopropane carboxylate]	92			100	100	104 to 105
C#CCN1CC(=O)N(COC(=O)[C@@H]2[C@H](/C=C(/C#N)OC)C2(C)C)C1=O [comparative compound (1), 2,5-dioxo-3-(2-propynyl)imidazolidinylmethyl=(1R)-cis-3-((Z)-2-cyano-2-methoxyethenyl)-2,2-dimethylcyclopropane carboxylate, reference compound]	42					
C#CCn1c(C)nn(COC(=O)[C@@H]2[C@@H](C=C(C#N)SCC)C2(C)C)c1=O (relative stereo) [compound of the present invention (5), 3-methyl-5-oxo-4-(2-propynyl)-4,5-dihydro-[1,2,4]triazolylmethyl=(1R)-trans-3-[(1EZ)-2-cyano-2-(ethylthio)ethenyl]-2,2-dimethylcyclopropane carboxylate]					90	
C#CCn1c(C)nn(COC(=O)[C@@H]2[C@@H](C=C(C#N)SCC)C2(C)C)c1=O [compound of the present invention (3), 3-methyl-5-oxo-4-(2-propynyl)-4,5-dihydro-[1,2,4]triazolylmethyl=(1R)-trans-3-[(1EZ)-2-cyano-2-(ethylthio)ethenyl]-2,2-dimethylcyclopropane carboxylate]					100	
C#CCn1c(C)nn(COC(=O)[C@@H]2[C@@H](C=C(C)C)C2(C)C)c1=O [comparative compound (2), 3-methyl-5-oxo-4-(2-propynyl)-4,5-dihydro-[1,2,4]triazolylmethyl=(1R)-trans-3-(2-methyl-1-propenyl)-2,2-dimethylcyclopropane carboxylate, reference compound]	33					
